# Reference: patent US12180187B2, “1-phenyl-5-azinylpyrazolyl-3-oxyalkyl acids and their use for controlling unwanted plant growth” (BAYER AKTIENGESELLSCHAFT, priority 2019, dated 2024)
# What was measured:
# ECHCG = test: Post-emergence action against ECHCG, 1.28 kg/ha; assay type: in vivo, Echinochloa crus-galli; conditions: dosage 1280 g/ha, visual rating about 3 weeks after treatment vs untreated controls
# Method in brief: (§1)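 Visual rating against untreated plants about 3 weeks after spraying gives % activity, where 0% means like controls and 100% means plants died. Plants were treated post-emergence at the one-leaf stage with compound formulated as wettable powder or emulsion concentrate, applied at 600 L water/ha plus 0.5% additive.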
# ECHGC = test: Pre-emergence action at 320 g/ha against ECHGC; assay type: in vivo, Echinochloa crus-galli; conditions: visual scoring after about 3 weeks vs untreated controls
# Method in brief: (§2)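 Visual scoring in percent against untreated controls, about 3 weeks after treatment, where 100% means dead plants and 0% means no difference. Compounds were applied as aqueous suspension or emulsion (WP or EC, plus 0.5% additive) onto soil covering freshly sown seeds, at 600 l/ha water.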
# AVEFA = test: Post-emergence action at 320 g/ha against AVEFA; assay type: in vivo; conditions: visual rating about 3 weeks after treatment vs untreated controls
# Method in brief: (§3)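 Greenhouse-grown plants sprayed post-emergence at the one-leaf stage, 2 to 3 weeks after sowing, with WP or EC formulations plus 0.5% additive at 600 l/ha water, at 320 g/ha. Activity rated visually after about 3 weeks versus untreated controls (100% = plants died, 0% = like control).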
# VERPE = test: Pre-emergence action against VERPE, 1280 g/ha; assay type: in vivo, Veronica persica; conditions: scored visually after about 3 weeks vs untreated controls (100% = plants have died)
# Method in brief: (§4)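 Activity was scored visually as percent versus untreated controls about 3 weeks after treatment (100% = dead plants, 0% = control-like). Compounds, formulated as wettable powders or emulsion concentrates, were sprayed onto the covering soil over freshly sown seeds in sandy loam, with 0.5% additive and 600 L/ha water.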
# LOLRI [1] = test: Pre-emergence action against LOLRI, 1280 g/ha; assay type: in vivo, Lolium rigidum; conditions: visual scoring after about 3 weeks vs untreated controls, 100% = plants have died, 0% = like control plants
# Method in brief: as §4
# ALOMY = test: Post-emergence action against ALOMY, 1.28 kg/ha; assay type: in vivo, Alopecurus myosuroides; conditions: dosage 1280 g/ha, visual rating about 3 weeks after treatment vs untreated controls
# Method in brief: as §1
# SETVI = test: Post-emergence action at 320 g/ha against SETVI; assay type: in vivo, Setaria viridis; conditions: visual rating about 3 weeks after treatment vs untreated controls
# Method in brief: as §3
# LOLRI [2] = test: Pre-emergence action at 320 g/ha against LOLRI; assay type: in vivo, Lolium rigidum; conditions: visual scoring after about 3 weeks vs untreated controls
# Method in brief: as §2
# STEME = test: Post-emergence action against STEME, 1.28 kg/ha; assay type: in vivo, Stellaria media; conditions: dosage 1280 g/ha, visual rating about 3 weeks after treatment vs untreated controls (100% = plants died)
# Method in brief: as §1
# ABUTH = test: Post-emergence action against ABUTH, 1.28 kg/ha; assay type: in vivo, Abutilon theophrasti; conditions: dosage 1280 g/ha, visual rating about 3 weeks after treatment vs untreated controls (100% = plants died)
# Method in brief: as §1
# KCHSC [3] = test: Post-emergence action against KCHSC, 1.28 kg/ha; assay type: in vivo, Bassia scoparia; conditions: dosage 1280 g/ha, visual rating about 3 weeks after treatment vs untreated controls (100% = plants died)
# Method in brief: as §1
# KCHSC [4] = test: Pre-emergence action against KCHSC, 1280 g/ha; assay type: in vivo, Bassia scoparia; conditions: scored visually after about 3 weeks vs untreated controls (100% = plants have died)
# Method in brief: as §4
Compound,Post-emergence action against ECHCG (ECHCG) [%],Pre-emergence action against ECHGC in % (ECHGC) [%],Post-emergence action against AVEFA in % (AVEFA) [%],Pre-emergence action against VERPE (VERPE) [%],Pre-emergence action against LOLRI (LOLRI [1]) [%],Post-emergence action against ALOMY (ALOMY) [%],Post-emergence action against SETVI in % (SETVI) [%],Pre-emergence action against LOLRI in % (LOLRI [2]) [%],Post-emergence action against STEME (STEME) [%],Post-emergence action against ABUTH (ABUTH) [%],Post-emergence action against KCHSC (KCHSC [3]) [%],Pre-emergence action against KCHSC (KCHSC [4]) [%]
O=C(COc1nn(-c2ccccc2F)c(-c2ccc(F)nc2)c1Br)OCC1OCCO1 [VII-103],100,80,80,100,100,100,80,100,,,,
CCOC(=O)C(C)Oc1nn(-c2ccccc2F)c(-c2ccc(F)nc2)c1C(F)(F)F (stereo not drawn) [VII-066],100,90,,100,100,100,,90,100,90,90,
CCOC(=O)COc1nn(-c2ccccc2F)c(-c2ccc(F)nc2)c1I [VII-036],90,90,80,100,100,100,90,,100,90,,
COC(=O)C(C)Oc1nn(-c2ccccc2)c(-c2ccc(F)nc2)c1Br (stereo not drawn) [VII-014],90,80,90,90,100,100,100,100,90,,,100
O=C(COc1nn(-c2ccccc2F)c(-c2ccc(F)nc2)c1Br)OCC1CCOC1 (stereo not drawn) [VII-091],100,,80,100,100,100,80,100,90,90,,
COC(=O)CNC(=O)COc1nn(-c2ccccc2F)c(-c2ccc(F)nc2)c1C(F)(F)F [Example X-007],100,,80,100,100,100,80,100,100,90,,
COCCOC(=O)COc1nn(-c2ccccc2F)c(-c2ccc(F)nc2)c1Br [VII-052],100,90,90,100,100,100,,100,100,90,,
CCOC(=O)COc1nn(-c2ccccc2F)c(-c2ccc(F)nc2)c1C [VII-117],100,90,90,100,100,,80,100,,,,
COC(=O)[C@H](C)Oc1nn(-c2cc(F)ccc2F)c(-c2ccc(F)nc2)c1Br [VII-107],100,,,100,90,100,80,80,100,90,,
CCOC(=O)C(C)Oc1nn(-c2ccccc2F)c(-c2ccc(F)nc2)c1I (stereo not drawn) [VII-057],100,,,100,100,100,80,90,,,90,100
COC(=O)[C@@H](C)Oc1nn(-c2cc(F)ccc2F)c(-c2ccc(F)nc2)c1Br [VII-062],100,,90,100,100,100,,100,100,,90,100
O=C(O)COc1nn(-c2ccccc2F)c(-c2ccc(F)nc2)c1I [VII-037],90,80,80,100,100,100,80,100,100,90,,
